The results in this text go back to PubChem BioAssay (NCI).

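Assay format: 96-well plates, 48-hour exposure. GI50: concentration for 50% inhibition of growth. TGI marks complete inhibition of growth.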

Holding throughout (assay): NCI-60 cell line screen, 48 h
Experiment [1] relates to ACHN renal.
The subject of experiment [2] is K-562 leukemia.
In experiment [3] the test system is KM12 colon.
Experiment [4] has as its system LOX IMVI melanoma.
Experiment [5] concerns MOLT-4 leukemia.
The subject of experiment [6] is NCI-H522 lung.
Experiment [7] has as its system SF-295 CNS.
Experiment [8] deals with SK-OV-3 ovarian.
For experiment [9], the system named is UACC-62 melanoma.
Experiment [10] has as its system UO-31 renal.

Regarding `COc1ccc(CN2C(=O)C(Cc3cc(OC)c(OC)c(C)c3OC)N(C(=O)OC(C)C)C(=O)/C2=C/c2cc(OC)c(OC)c(C)c2OC)cc1` (stereo not given), the TGI in [1], in [2], in experiment [3], in experiment [4], in [5] and in experiment [6] was above 100 µM each time. Also, the TGI in [7], in [8], in [9] and in experiment [10] was above 100 µM in each case.
Take `O=C1OC(c2ccccc2)C2CC3CC4(CCC3CN12)OCCO4` (stereo not given): the TGI in experiment [2] is above 100 µM; in experiment [3] it was above 100 µM; in experiment [4], above 100 µM; in experiment [5], above 100 µM; in experiment [6], 1.57 µM; in [7], above 100 µM. Moreover, the TGI in experiment [8], in experiment [9] and in experiment [10] was above 100 µM throughout.
Regarding `C[As](C)Sc1ccnc(S[As](C)C)n1`, the GI50 in experiment [1] was 1.85 µM; in [2], 1.06 µM; in [3], 9.52 µM; in experiment [4], 2.76 µM; in experiment [5], 1.43 µM; in [6], 0.918 µM. Further, the GI50 in [7] was 27.2 µM; in [8], 12.4 µM; in experiment [9], 2.38 µM; in experiment [10] it was 3.73 µM. The TGI in experiment [1] was 15.1 µM; in experiment [3] it was above 51.9 µM; in [4], 96.2 µM; in experiment [6] it was 27.8 µM; in experiment [7], above 59.2 µM; in [8], above 100 µM. Besides, the TGI in [9] is 15.6 µM; in experiment [10], 26.9 µM.
As for `CC(C)c1ccc2c(N=Nc3ccc(S(N)(=O)=O)cc3)c(O)[nH]c2c1`, the GI50 in [1] was above 14 µM; in [2], above 25 µM; in [3], 1.24 µM; in experiment [4] it was 9.01 µM; in experiment [5] it was above 25 µM; in experiment [6] it was 7.08 µM. The GI50 in experiment [7] is 11.2 µM; in [8] it was 7.22 µM; in [9], above 25 µM; in [10] it was above 11.9 µM. The TGI was above 25 µM in experiment [1]; above 25 µM in experiment [2]; above 25 µM in [3]; above 25 µM in [4]; above 25 µM in [5]; above 17.8 µM in experiment [6]. Besides, the TGI was above 25 µM in experiment [7], 19.3 µM in [8], above 25 µM in experiment [9] and above 20.7 µM in [10].
With `Nc1ccccc1/C=N\Nc1ccccc1`, the GI50 is 3.01 µM in experiment [1]; 3.24 µM in [2]; 0.602 µM in experiment [3]; 1.29 µM in [4]; 26.3 µM in [5]; above 100 µM in experiment [6]. For the same compound, the GI50 was 1.63 µM in experiment [7], above 100 µM in experiment [8], 0.353 µM in experiment [9] and 2.43 µM in [10]. The TGI in experiment [1], in experiment [2], in experiment [3], in [4], in experiment [5] and in experiment [6] was above 100 µM each time. In addition, the TGI in [7], in experiment [8], in experiment [9] and in experiment [10] was above 100 µM throughout.
Turning to `C(=N/Nc1ncnc2nc[nH]c12)/c1ccccn1`, the GI50 was 1.19 µM in experiment [1]; 0.803 µM in [2]; 0.661 µM in experiment [3]; 0.525 µM in experiment [4]; 0.367 µM in experiment [5]; 0.551 µM in experiment [6]. Besides, the GI50 in [7] was 0.774 µM; in experiment [8] it was 0.456 µM; in [9], 0.514 µM; in experiment [10], 0.265 µM. Also, the TGI in experiment [1] is 14.1 µM; in experiment [2] it was above 100 µM; in experiment [3], above 100 µM; in experiment [4], above 100 µM; in experiment [5], above 100 µM; in experiment [6], above 100 µM. Further, the TGI in experiment [7] is 16 µM; in experiment [8] it was 15.6 µM; in [9], 3.24 µM; in experiment [10], 3.09 µM.
Consider `C#CC[C@@H]1C[C@]2(C)[C@H]3CC[C@@H]4[C@H]5[C@H](C(=C)C)CC[C@]5(C(=O)O)CC[C@@]4(C)[C@]3(C)CC[C@H]2C(C)(C)[C@H]1O`, for which the GI50 is 1.5 µM in [1]; 2.32 µM in [2]; 1.64 µM in [3]; 2.63 µM in [4]; 3.16 µM in experiment [5]; 2.95 µM in [6]. The GI50 in [7] was 1.45 µM; in experiment [8], 2.39 µM; in [9], 2.64 µM; in experiment [10], 1.83 µM. For the same compound, the TGI in experiment [1] was 3.18 µM; in experiment [2], 20.9 µM; in experiment [3] it was 4.83 µM; in [4], 8.67 µM; in [5] it was above 100 µM; in [6], 12.3 µM. Also, the TGI in experiment [7] stood at 3.17 µM; in experiment [8], 5.25 µM; in experiment [9], 9.84 µM; in [10], 5.33 µM.
Regarding `CCOC(=O)c1ccc2c(c1)[n+](=O)c(C(=O)c1ccc3ccccc3c1)c(C(F)(F)F)n2[O-]`, the GI50 in experiment [1] was 1.47 µM; in experiment [2], 0.312 µM; in experiment [3] it was 1.25 µM; in experiment [4] it was 0.175 µM; in experiment [6], 0.458 µM; in experiment [7], 1.78 µM. Further, the GI50 was 1.64 µM in experiment [8], 1.52 µM in experiment [9] and 1.3 µM in experiment [10]. The TGI in [1] amounted to 2.93 µM; in experiment [2], 1.51 µM; in experiment [3], 2.51 µM; in experiment [4], 0.329 µM; in experiment [6] it was 1.87 µM; in [7], 3.17 µM. In addition, the TGI in experiment [8] came out at 2.99 µM; in experiment [9], 2.93 µM; in experiment [10], 2.57 µM.
